Assay results from article PMC10387993, “New pyrimidine-N-β-D-glucosides: synthesis, biological evaluation, and molecular docking investigations” (Turkish Journal of Chemistry, 2023).
Converted amounts (≈) assume the structure as drawn. Where two headings read alike, the source gives them in different places. Values belong to the molecule of their own block, whether it stands above or below them.

What was measured:
Assay type in all cases: cell-based
[1] = LDH cytotoxic activity assay, C6; conditions: rat, C6 glioma cells; for cytotoxicity at 24 h, 25 μg/mL: C6, 25 μg/mL; for cytotoxicity at 24 h, 50 μg/mL: C6, 50 μg/mL; for cytotoxicity at 24 h, 75 μg/mL: C6, 75 μg/mL; for cytotoxicity at 24 h, 100 μg/mL: C6, 100 μg/mL
Description: (§1) The cell lines were cultured in a cell medium (Dulbecco’s modified eagle’s or RPMI 1640) enriched with 10% (v/v) fetal bovine serum and 2% (v/v) Penicillin-Streptomycin (10,000 U/mL). First, old medium was removed out of the flask when the cells reached approximately 80% confluence. Next, cells were taken from the flasks surface using trypsin-EDTA solution and then subjected to centrifugation. Following, the cell pellet was suspended with fresh media and was inoculated into wells.
(§2) Approximately 5 × 10^3 cells in 100 μL were placed into 96-well plates as triplicates and treated with 25, 50, 75, and 100 μg/mL concentrations of test compounds at 37 °C with 5% CO2 for 24 h. LDH activity was obtained by determining absorbance at 492–630 nm using a microplate reader.

normal FL cells = experiment: cells; conditions: for GI50 / IC50 / IC (total growth inhibition): FL normal cells, MTT; for IC50: read-out: IC50; for IC (total growth inhibition): read-out: TGI
Description: as §1
(§3) A cell suspension containing approximately 1 × 10^4 cells in 100 μL was seeded into the wells of 96-well culture plates. […]. The final volume of the wells was set to 200 μL by medium. Cell proliferation assay was evaluated by MTT (yellow tetrazolium MTT (3-(4,5-dimethylthiazolyl-2)-2,5-diphenyltetrazolium bromide) methods. Briefly, an MTT stock solution (5 mg of MTT/mL of distilled water) was filtered and kept at −20 °C until use. The cells were exposed to an MTT reagent (consisting of one parts of MTT stock solutions and nine parts of fresh RPMI 1640 without phenol red) for 4 h to form MTT formazan dye followed by the dye dissolved in DMSO with Sorenson’s buffer for 30 min at room temperature and then the plate was measured at 560 nm, with 690 nm as a reference interval, using a microplate reader. Each experiment was repeated at least three times for each cell line.
(§4) IC50 value is a concentration that inhibits half of the cells in vitro. The half maximal inhibitory concentration (IC50) of the test and control compounds was calculated using XLfit5 or excel spreadsheet and represent in μM at 95% confidence intervals. The proliferation assay results were expressed as the percent inhibition according to the following formula: % Inhibition = [1 - (Absorbance of Treatments /Absorbance of DMSO) × 100]. Three dose response parameters (GI50, TGI, LC50) were calculated according to the following formulas using the absorbance measurements of time zero (Tz), control growth (C), and test growth in the presence of drug (Ti). Growth inhibition of 50% (GI50) was calculated from [(Ti-Tz)/(C-Tz)] × 100 = 50, which is the drug concentration resulting in a 50% reduction in the net growth increase in control cells during the drug incubation. The drug concentration resulting in total growth inhibition (TGI) was calculated from Ti = Tz. The LC50 indicating a net loss of cells following treatment was calculated from [(Ti-Tz)/Tz] × 100 = −50.

in vitro = conditions: human, LC50
Description: as §1, §3, §4

S. gordonii NCTC 7870 = experiment: Microdilution MIC assay; conditions: Streptococcus gordonii, NCTC7870; S. gordonii NCTC 7870, 24 h at 35 °C
Description: (§5) MIC values of the compounds against bacterial strains were determined on the basis of a microwell dilution method. […] […]. Growth of microorganisms was determined visually after incubation for 24 h at 35 °C. The lowest concentration at which there was no visible growth (turbidity) was taken as the MIC.

S. mutans ATCC 35668 = experiment: Microdilution MIC assay; conditions: S. mutans ATCC 35668, 24 h at 35 °C
Description: as §5

E. coli ESBL ATCC 35218 = experiment: Microdilution MIC assay; conditions: Escherichia coli, ATCC35218; E. coli ESBL ATCC 35218, 24 h at 35 °C
Description: as §5

S. aureus ATCC 25923 = experiment: Microdilution MIC assay; conditions: Staphylococcus aureus, ATCC25923, 24 h, S. aureus ATCC 25923, 24 h at 35 °C; read-out: MIC
Description: as §5

E. coli ATCC 25922 = experiment: Microdilution MIC assay; conditions: Escherichia coli, ATCC25922; E. coli ATCC 25922, 24 h at 35 °C
Description: as §5

[2] = LDH cytotoxic activity assay, HT29; conditions: human, HT29 cells; for cytotoxicity at 24 h, 25 μg/mL: HT29, 25 μg/mL; for cytotoxicity at 24 h, 50 μg/mL: HT29, 50 μg/mL; for cytotoxicity at 24 h, 75 μg/mL: HT29, 75 μg/mL; for cytotoxicity at 24 h, 100 μg/mL: HT29, 100 μg/mL
Description: as §1, §2

[3] = LDH cytotoxic activity assay, HeLa; conditions: human, HeLa cells
Description: as §1, §2

MCF7 = experiment: cells; conditions: Homo sapiens; for LC50 (concentration causing 50% net cell loss relative to time zero): MCF7, read-out: LC50; for GI50 / IC50 / IC (total growth inhibition): MCF7, MTT; for IC50: read-out: IC50; for IC (total growth inhibition): read-out: TGI
Description: as §1, §3, §4

C6 (Rat brain glioma) = experiment: cells; conditions: Rattus norvegicus; for LC50 (concentration giving 50% net cell loss relative to time zero): read-out: LC50; for GI50 / IC50 / IC (total growth inhibition): C6, MTT; for IC50: read-out: IC50; for IC (total growth inhibition): read-out: TGI
Description: as §1, §3, §4

HT29 = experiment: cells; conditions: Homo sapiens; for LC50 (concentration giving 50% net cell loss relative to time zero): HT-29, read-out: LC50; for GI50 / IC50 / IC (total growth inhibition): HT-29, HT29, MTT; for IC50: read-out: IC50; for IC (total growth inhibition): read-out: TGI
Description: as §1, §3, §4

Hep3B = experiment: cells; conditions: Homo sapiens; for GI50 / IC50 / IC (total growth inhibition): MTT; for IC50: read-out: IC50; for IC (total growth inhibition): read-out: TGI; for LC50 (concentration causing 50% net cell loss relative to time zero): read-out: LC50
Description: as §1, §3, §4

HeLa = experiment: cells; conditions: Homo sapiens; for GI50 / IC50 / IC (total growth inhibition): MTT; for IC50: read-out: IC50; for IC (total growth inhibition): read-out: TGI; for LC50 (concentration causing 50% net cell loss): read-out: LC50
Description: as §1, §3, §4

A549 = experiment: cells; conditions: Homo sapiens; for LC50 (concentration causing 50% net cell loss): A549, read-out: LC50; for GI50 / IC50 / IC (total growth inhibition): A549, MTT; for IC50: read-out: IC50; for IC (total growth inhibition): read-out: TGI
Description: as §1, §3, §4

[4] = Streptococcus mutans, ATCC35668, 24 h, read-out: MIC

MIC (S. gordonii NCTC 7870): > 1000 µg/mL
MIC (S. mutans ATCC 35668): 125 µg/mL (≈ 211 µM)
MIC (S. mutans ATCC 35668; [4]): 62.5 to 125 µg/mL (≈ 105 to 211 µM)
MIC (E. coli ESBL ATCC 35218): > 1000 µg/mL
MIC (S. aureus ATCC 25923): > 1000 µg/mL
MIC (E. coli ATCC 25922): > 1000 µg/mL
GI50 (MCF7): 2.19 µg/mL (≈ 3.7 µM)
IC50 (MCF7): > 500 µg/mL
GI50 (C6 (Rat brain glioma)): > 500 µg/mL
IC50 (C6 (Rat brain glioma)): > 500 µg/mL
GI50 (HT29): 3.09 µg/mL (≈ 5.21 µM)
IC50 (HT29): > 500 µg/mL
GI50 (Hep3B): 3.86 µg/mL (≈ 6.51 µM)
IC50 (Hep3B): > 500 µg/mL
GI50 (HeLa): > 500 µg/mL
IC50 (HeLa): > 500 µg/mL
GI50 (A549): 7.85 µg/mL (≈ 13.2 µM)
IC50 (A549): > 500 µg/mL
Structure (SMILES): CC(=O)OC[C@H]1O[C@@H](Nc2nc(-c3ccc(C)cc3)cc(-c3cccnc3)n2)[C@H](OC(C)=O)[C@@H](OC(C)=O)[C@@H]1OC(C)=O [Compound 17, 2,3,4,6-tetra-O-acetyl-N-[4-(4-methylphenyl)-6-pyridin-3-ylpyrimidin-2-yl]-β-D-glucopyranosylamine]
cytotoxicity at 24 h, 25 μg/mL [1]: 32%
cytotoxicity at 24 h, 50 μg/mL [1]: 44.6%
cytotoxicity at 24 h, 75 μg/mL [1]: 67.6%
cytotoxicity at 24 h, 100 μg/mL [1]: 81.8%
GI50 (normal FL cells): 17.2 µg/mL (≈ 29 µM)
IC50 (normal FL cells): > 500 µg/mL
IC (total growth inhibition) (normal FL cells): > 500 µg/mL
LC50 (concentration causing 50% net cell loss) (in vitro): > 500 µg/mL
cytotoxicity at 24 h, 25 μg/mL [2]: 21.7%
cytotoxicity at 24 h, 50 μg/mL [2]: 35.8%
cytotoxicity at 24 h, 75 μg/mL [2]: 51%
cytotoxicity at 24 h, 100 μg/mL [2]: 75.7%
cytotoxicity at 24 h, 25 μg/mL [3]: 16.7%
cytotoxicity at 24 h, 50 μg/mL [3]: 23.8%
cytotoxicity at 24 h, 75 μg/mL [3]: 32.4%
cytotoxicity at 24 h, 100 μg/mL [3]: 48.6%
LC50 (concentration causing 50% net cell loss relative to time zero) (MCF7): > 500 µg/mL
IC (total growth inhibition) (MCF7): > 500 µg/mL
LC50 (concentration giving 50% net cell loss relative to time zero) (C6 (Rat brain glioma)): > 500 µg/mL
IC (total growth inhibition) (C6 (Rat brain glioma)): > 500 µg/mL
LC50 (concentration giving 50% net cell loss relative to time zero) (HT29): > 500 µg/mL
IC (total growth inhibition) (HT29): > 500 µg/mL
IC (total growth inhibition) (Hep3B): > 500 µg/mL
LC50 (concentration causing 50% net cell loss relative to time zero) (Hep3B): > 500 µg/mL
IC (total growth inhibition) (HeLa): > 500 µg/mL
LC50 (concentration causing 50% net cell loss) (HeLa): > 500 µg/mL
LC50 (concentration causing 50% net cell loss) (A549): > 500 µg/mL
IC (total growth inhibition) (A549): > 500 µg/mL

MIC (S. gordonii NCTC 7870): > 1000 µg/mL
MIC (S. mutans ATCC 35668): 125 µg/mL (≈ 211 µM)
MIC (S. mutans ATCC 35668; [4]): 62.5 to 125 µg/mL (≈ 105 to 211 µM)
MIC (E. coli ESBL ATCC 35218): > 1000 µg/mL
MIC (S. aureus ATCC 25923): 500 µg/mL (≈ 844 µM)
MIC (E. coli ATCC 25922): > 1000 µg/mL
GI50 (MCF7): 1.79 µg/mL (≈ 3.02 µM)
IC50 (MCF7): > 500 µg/mL
GI50 (C6 (Rat brain glioma)): 2.23 µg/mL (≈ 3.76 µM)
IC50 (C6 (Rat brain glioma)): 30.1 µg/mL (≈ 50.9 µM)
GI50 (HT29): 7.77 µg/mL (≈ 13.1 µM)
IC50 (HT29): > 500 µg/mL
GI50 (Hep3B): 6.15 µg/mL (≈ 10.4 µM)
IC50 (Hep3B): > 500 µg/mL
GI50 (HeLa): 1.03 µg/mL (≈ 1.74 µM)
IC50 (HeLa): 2.29 µg/mL (≈ 3.86 µM)
GI50 (A549): 15.5 µg/mL (≈ 26.2 µM)
IC50 (A549): > 500 µg/mL
Structure (SMILES): CC(=O)OC[C@H]1O[C@@H](Nc2nc(-c3ccncc3)cc(-c3ccc(C)cc3)n2)[C@H](OC(C)=O)[C@@H](OC(C)=O)[C@@H]1OC(C)=O [Compound 18, 2,3,4,6-tetra-O-acetyl-N-[4-(4-methylphenyl)-6-pyridin-4-ylpyrimidin-2-yl]-β-D-glucopyranosylamine]
cytotoxicity at 24 h, 25 μg/mL [1]: 27.2%
cytotoxicity at 24 h, 50 μg/mL [1]: 44.1%
cytotoxicity at 24 h, 75 μg/mL [1]: 75.2%
cytotoxicity at 24 h, 100 μg/mL [1]: 86.5%
GI50 (normal FL cells): 2.01 µg/mL (≈ 3.39 µM)
IC50 (normal FL cells): 7.46 µg/mL (≈ 12.6 µM)
IC (total growth inhibition) (normal FL cells): 7.58 µg/mL
LC50 (normal FL cells; human): 352.27 µg/mL (≈ 594 µM)
LC50 (concentration causing 50% net cell loss) (in vitro): > 500 µg/mL
cytotoxicity at 24 h, 25 μg/mL [2]: 27.9%
cytotoxicity at 24 h, 50 μg/mL [2]: 45.5%
cytotoxicity at 24 h, 75 μg/mL [2]: 58.1%
cytotoxicity at 24 h, 100 μg/mL [2]: 82.8%
cytotoxicity at 24 h, 25 μg/mL [3]: 14.2%
cytotoxicity at 24 h, 50 μg/mL [3]: 39%
cytotoxicity at 24 h, 75 μg/mL [3]: 46.1%
cytotoxicity at 24 h, 100 μg/mL [3]: 54.2%
LC50 (concentration causing 50% net cell loss relative to time zero) (MCF7): > 500 µg/mL
IC (total growth inhibition) (MCF7): > 500 µg/mL
LC50 (concentration giving 50% net cell loss relative to time zero) (C6 (Rat brain glioma)): 29.8 µg/mL (≈ 50.2 µM)
IC (total growth inhibition) (C6 (Rat brain glioma)): 5.21 µg/mL
LC50 (concentration giving 50% net cell loss relative to time zero) (HT29): > 500 µg/mL
IC (total growth inhibition) (HT29): > 500 µg/mL
IC (total growth inhibition) (Hep3B): > 500 µg/mL
LC50 (concentration causing 50% net cell loss relative to time zero) (Hep3B): > 500 µg/mL
IC (total growth inhibition) (HeLa): 1.29 µg/mL
LC50 (concentration causing 50% net cell loss) (HeLa): 7.4 µg/mL (≈ 12.5 µM)
LC50 (concentration causing 50% net cell loss) (A549): > 500 µg/mL
IC (total growth inhibition) (A549): > 500 µg/mL
